From article PMC8950173 (Pharmaceuticals, 2022)

Legend:
human recombinant HDAC2 = biological target: T1, human recombinant HDAC2 (Homo sapiens, UniProt Q92769); experiment: Inhibition assay HDAC2 (fluorogenic substrate ZMAL); format: biochemical; details: 60 min preincubation at 25 °C
T1 construct: purchased BPS Bioscience Inc. 50052
Experimental: (§1) In vitro inhibitory activities against HDAC1−3 and HDAC6 were measured as previously published with minor modifications. […] Subsequently, 50 µL trypsin solution (0.4 mg/mL trypsin in buffer: 50 mM Tris−HCl, pH = 8.0, 100 mM NaCl) was added, followed by additional 30 min of incubation at 37 °C. […] All compounds were tested at least twice in duplicates.

[1] = Whole-body biodistribution derived from PET imaging; format: in vivo
Experimental: For the time of the experiments, female CD-1 mice (n = 6; 8–15 weeks; 29–43 g) were kept in a dedicated climatic chamber with free access to water and food under a 12:12 h dark:light cycle at a constant temperature (24 °C). The animals were anaesthetized (Anaesthesia Unit U-410, agntho’s, Lidingö, Sweden) with isoflurane (2.0%, 300 mL/min) delivered in a 60% oxygen/40% air mixture (Gas Blender 100 Series, MCQ instruments, Rome, Italy) and their body temperature maintained at 37 °C with a thermal bed system. For baseline studies [^18F]BA3 was injected into the tail vein (n = 2; 6.0 ± 0.6 MBq in 150 µL isotonic saline; 9.2 ± 0.7 nmol/kg; Am: 21 GBq/μmol, EOS) followed by a dynamic 60 min PET/MR scan (Mediso nanoScan®, Budapest, Hungary). Permeability-glycoprotein efflux transporter studies consisted in pre-treatment via i.v. injection of cyclosporine A (50 mg/kg in NaCl/DMSO/kolliphor, 7:1:2, v/v; n = 2) or of vehicle (NaCl/DMSO/kolliphor, 7:1:2, v/v; n = 2) 30 min prior to [^18F]BA3 (6.0 ± 0.9 MBq; 4.9 ± 0.7 nmol/kg; Am: 32–37 GBq/μmol, EOS). Each PET image was corrected for random coincidences, dead time, scatter and attenuation (AC), based on a whole body (WB) MR scan. The reconstruction parameters for the list mode data were 3D-ordered subset expectation maximization (OSEM), 4 iterations, 6 subsets, energy window: 400–600 keV, coincidence mode: 1–5, ring difference: 81. The mice were positioned prone in a special mouse bed (heated up to 37 °C), with the head fixed to a mouth piece for the anaesthetic gas supply with isoflurane in 40% air and 60% oxygen. The PET data were collected by a continuous WB scan during the entire investigation. Following the 60 min PET scan a T1 weighted WB gradient echo sequence (TR/TE: 20/6.4 ms, NEX: 1, FA: 25, FOV: 64 × 64 mm, Matrix: 128 × 128, STh: 0.5 mm) was performed for AC and anatomical orientation. […]. The respective brain regions were identified using the mouse brain atlas template Ma-Benveniste-Mirrione-FDG. The activity data are expressed as mean SUV of the overall ROI.

human recombinant HDAC1 = biological target: T2, human recombinant HDAC1 (Homo sapiens, UniProt Q13547); experiment: Inhibition assay HDAC1 (fluorogenic substrate ZMAL); format: biochemical; details: 60 min preincubation at 25 °C
T2 construct: purchased BPS Bioscience Inc. 50051
T2 sequence (Q13547 whole entry): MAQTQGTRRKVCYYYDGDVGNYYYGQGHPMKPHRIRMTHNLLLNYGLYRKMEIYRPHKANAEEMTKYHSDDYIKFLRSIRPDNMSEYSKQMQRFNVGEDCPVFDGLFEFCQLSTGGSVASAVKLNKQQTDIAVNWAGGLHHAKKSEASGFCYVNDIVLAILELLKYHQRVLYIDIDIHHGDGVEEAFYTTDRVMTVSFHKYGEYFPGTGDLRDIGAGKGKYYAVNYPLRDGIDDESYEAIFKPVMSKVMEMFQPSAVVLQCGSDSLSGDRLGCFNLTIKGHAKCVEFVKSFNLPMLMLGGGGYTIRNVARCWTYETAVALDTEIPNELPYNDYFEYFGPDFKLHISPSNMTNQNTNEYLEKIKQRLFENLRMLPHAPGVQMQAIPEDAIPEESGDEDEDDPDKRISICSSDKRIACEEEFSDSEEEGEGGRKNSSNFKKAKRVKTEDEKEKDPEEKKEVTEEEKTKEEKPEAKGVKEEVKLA
Experimental: as §1

human recombinant HDAC6 = biological target: T3, human recombinant HDAC6 (Homo sapiens, UniProt Q9UBN7); experiment: Inhibition assay HDAC6 (fluorogenic substrate ZMAL); format: biochemical; details: from IC50 values
T3 construct: purchased BPS Bioscience Inc. 50006
T3 sequence (Q9UBN7 1-1215): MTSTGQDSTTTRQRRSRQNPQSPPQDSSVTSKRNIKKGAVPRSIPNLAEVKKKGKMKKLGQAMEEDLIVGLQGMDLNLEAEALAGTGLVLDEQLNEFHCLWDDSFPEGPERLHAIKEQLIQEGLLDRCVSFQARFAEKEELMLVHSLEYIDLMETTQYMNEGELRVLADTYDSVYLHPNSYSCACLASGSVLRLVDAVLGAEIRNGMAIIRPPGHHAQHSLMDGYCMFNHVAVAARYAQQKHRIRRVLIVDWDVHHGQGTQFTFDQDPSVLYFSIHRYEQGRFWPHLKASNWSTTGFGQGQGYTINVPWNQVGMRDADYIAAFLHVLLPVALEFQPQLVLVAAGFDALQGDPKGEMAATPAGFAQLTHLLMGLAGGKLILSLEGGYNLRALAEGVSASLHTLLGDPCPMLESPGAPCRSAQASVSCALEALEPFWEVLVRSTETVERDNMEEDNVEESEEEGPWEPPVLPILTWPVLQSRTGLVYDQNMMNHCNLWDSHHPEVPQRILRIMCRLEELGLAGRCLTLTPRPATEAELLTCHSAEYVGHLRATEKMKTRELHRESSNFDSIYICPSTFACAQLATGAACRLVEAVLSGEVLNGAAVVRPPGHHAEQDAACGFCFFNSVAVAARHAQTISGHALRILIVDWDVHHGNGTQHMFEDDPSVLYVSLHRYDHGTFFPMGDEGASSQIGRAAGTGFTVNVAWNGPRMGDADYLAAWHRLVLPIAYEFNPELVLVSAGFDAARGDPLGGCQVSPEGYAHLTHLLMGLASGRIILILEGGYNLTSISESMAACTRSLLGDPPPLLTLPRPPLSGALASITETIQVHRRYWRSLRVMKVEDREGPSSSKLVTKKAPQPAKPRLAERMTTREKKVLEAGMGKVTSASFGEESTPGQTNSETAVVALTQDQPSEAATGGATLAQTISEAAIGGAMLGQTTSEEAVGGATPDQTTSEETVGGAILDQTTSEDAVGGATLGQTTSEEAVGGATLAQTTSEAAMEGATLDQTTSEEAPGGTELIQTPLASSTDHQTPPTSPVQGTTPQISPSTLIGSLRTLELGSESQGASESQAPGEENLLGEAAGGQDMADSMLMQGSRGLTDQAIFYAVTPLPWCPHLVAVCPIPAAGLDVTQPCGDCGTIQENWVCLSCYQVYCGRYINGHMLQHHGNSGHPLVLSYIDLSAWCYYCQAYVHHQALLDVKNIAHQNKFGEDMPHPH
Experimental: as §1

Radiochemical stability = format: physicochemical; details: room temperature, more than two hours
Experimental: Radiochemical stability of [^18F]BA3 was investigated in 0.9% NaCl solution (containing 10% EtOH) and in n-octanol at room temperature for 2 h. Samples were analysed by radio-RP-HPLC (see quality control). The LogD7.4 value of [^18F]BA3 was experimentally determined in n-octanol/phosphate-buffered saline (PBS, pH = 7.4) at room temperature by the shake-flask method as described previously. Briefly, small tracer amounts (~800 kBq) were added to a mixture of 3 mL n-octanol and 3 mL PBS. After shaking for 20 min, the samples were centrifuged (10,000 rpm, 5 min) and 1 mL aliquots of the organic as well as aqueous layer were taken and measured in a gamma counter (1480 WIZARD, Perkin Elmer, Turku, Finland). Another 1 mL aliquot of the organic layer was mixed with 2 mL n-octanol and 3 mL PBS and subjected to the same procedure until constant partition coefficient values had been obtained. The measurement was performed twice in quadruplicate.

T1 sequence (Q92769 whole entry): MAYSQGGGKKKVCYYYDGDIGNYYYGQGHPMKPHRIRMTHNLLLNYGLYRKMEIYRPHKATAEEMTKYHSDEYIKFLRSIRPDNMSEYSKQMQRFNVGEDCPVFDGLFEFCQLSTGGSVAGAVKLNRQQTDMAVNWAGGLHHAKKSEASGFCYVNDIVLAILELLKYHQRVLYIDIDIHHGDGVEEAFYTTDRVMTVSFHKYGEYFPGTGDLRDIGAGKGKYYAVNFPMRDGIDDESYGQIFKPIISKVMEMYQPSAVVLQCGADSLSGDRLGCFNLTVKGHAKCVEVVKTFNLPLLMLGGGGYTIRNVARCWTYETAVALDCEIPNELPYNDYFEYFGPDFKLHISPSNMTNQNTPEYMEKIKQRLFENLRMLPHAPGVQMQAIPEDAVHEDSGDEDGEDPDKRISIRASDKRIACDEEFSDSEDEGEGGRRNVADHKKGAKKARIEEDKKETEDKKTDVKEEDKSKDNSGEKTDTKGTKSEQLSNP

Compound: CC([18F])C(=O)NCc1ccc(C(=O)Nc2cc(-c3ccsc3)ccc2N)cc1 (centres unmarked) [[^18F]BA3]
- IC50 (human recombinant HDAC2): 39.9 ± 3.2 nM
- activity in blood circulation SUV5 min ([1]; blood, 5 min): 1.47 SUV
- activity in blood circulation SUV60 min ([1]; blood, 60 min): 1.10 SUV
- initial uptake SUV5 min ([1]; spleen, kidney, muscle, liver and small intestines, 5 min): < 4 SUV
- IC50 (human recombinant HDAC1): 4.8 ± 0.6 nM
- specificity ratio HDAC1 over HDAC6 (human recombinant HDAC6): > 2080
- radiochemical purity (stability) (Radiochemical stability; in n-octanol): > 99%
- radiochemical purity (stability) (Radiochemical stability; in saline formulation containing 10% EtOH): > 99%
